Data reported in the Kinase Knowledgebase extract (Sharma et al. 2016).
Several values for one entry are separate records, joined by “and”; a condition that tells them apart may be missing. Equal values may be shown once.

Columns and labels:
[1] = system: MAPK14 (rat); test: Pharmacokinetic Studies
[2] = system: MAPK14 (Lewis rat); test: p38 Inhibition (SCW-Induced Arthritis Model)
[3] = molecular target: MAPK14 (human) (UniProt Q16539); test: TNF-alpha Inhibition; settings: thp1
[4] = molecular target: MAPK14 (mouse); test: p38 Inhibition
[5] = system: MAPK14 (Balb/c mice); test: TNF-alpha Inhibition (in vivo)

Sequence of MAPK14 (human) (Q16539 whole entry, looked up): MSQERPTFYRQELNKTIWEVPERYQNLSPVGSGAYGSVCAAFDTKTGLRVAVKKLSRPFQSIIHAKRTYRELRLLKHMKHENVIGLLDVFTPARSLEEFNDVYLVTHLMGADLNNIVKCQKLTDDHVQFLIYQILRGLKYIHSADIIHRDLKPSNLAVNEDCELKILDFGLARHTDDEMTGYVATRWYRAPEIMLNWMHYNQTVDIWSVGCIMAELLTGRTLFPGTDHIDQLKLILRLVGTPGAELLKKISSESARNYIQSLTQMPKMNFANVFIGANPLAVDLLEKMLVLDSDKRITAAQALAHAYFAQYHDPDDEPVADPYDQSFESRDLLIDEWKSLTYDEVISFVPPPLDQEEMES

Structure (SMILES) | AUC [1] | IC50 [3] | also measured
C[C@]1(C(=O)NC2CC2)CO[C@H](c2nc(-c3ccc(F)cc3)c(-c3ccnc(NCC4CC4)n3)[nH]2)OC1 | 288 ng·h/mL |  | 
COCCNc1nccc(-c2[nH]c([C@H]3OC[C@@](C)(C(=O)NCC4CC4)CO3)nc2-c2ccc(F)cc2)n1 | 121 ng·h/mL |  | 
CC(C)NC(=O)[C@]1(C)CO[C@@H](c2nc(-c3ccc(F)cc3)c(-c3ccnc(NCC4CC4)n3)[nH]2)OC1 | 412 ng·h/mL |  | 
C[C@@H]1C[C@H]2[C@@H]3CCC4=CC(=O)C=C[C@]4(C)[C@@]3(F)[C@@H](O)C[C@]2(C)[C@@]1(O)C(=O)CO |  |  | score [2]: 22.5
C=CCNc1nccc(-c2[nH]c([C@H]3OC[C@@](C)(C(=O)NCCOC)CO3)nc2-c2ccc(F)cc2)n1 | 169 ng·h/mL | 73 nM | 
CCCNC(=O)[C@]1(C)CO[C@@H](c2nc(-c3ccc(F)cc3)c(-c3ccnc(NCCCOC)n3)[nH]2)OC1 | 738 ng·h/mL | 3.5 nM | 
CN(C)C(=O)[C@]1(C)CO[C@@H](c2nc(-c3ccc(F)cc3)c(-c3ccnc(NCc4ccccn4)n3)[nH]2)OC1 | 529 ng·h/mL | 9 nM | 
CCCNC(=O)[C@]1(C)CO[C@@H](c2nc(-c3ccc(F)cc3)c(-c3ccnc(NCc4ccco4)n3)[nH]2)OC1 | 257 ng·h/mL | 3 nM | 
CN1CCN(C(=O)[C@]2(C)CO[C@@H](c3nc(-c4ccc(F)cc4)c(-c4ccnc(NCC5CC5)n4)[nH]3)OC2)CC1 | 541 ng·h/mL | 2 nM | bioavailability ([1]; dose or concentration not given here): 20%; score [2]: 40 and 34 and 25
C[C@]1(C(=O)N2CCOCC2)CO[C@H](c2nc(-c3ccc(F)cc3)c(-c3ccncc3)[nH]2)OC1 | 247 ng·h/mL and 628 ng·h/mL | 60 nM | Cp [1]: 277 ng/mL; IC50 [4]: 110000 nM; ED50 [5]: Between 3 to 10 mg kg-1
COCCCNc1nccc(-c2[nH]c([C@H]3OC[C@@](C)(C(=O)NCCOC)CO3)nc2-c2ccc(F)cc2)n1 | 138 ng·h/mL | 71 nM | 
CN(C)C(=O)[C@]1(C)CO[C@@H](c2nc(-c3ccc(F)cc3)c(-c3ccnc(NCC4CC4)n3)[nH]2)OC1 | 276 ng·h/mL | 0.2 nM | 
